Reference: patent US20190053492A1, “SUBSTITUTED PYRIDINE COMPOUNDS AS PESTICIDES” (Bayer CropScience Aktiengesellschaft, priority 2016, published 2019)
Where two headings read alike, the source gives them in different places.

What was measured:
[1] = log P by HPLC on reversed-phase column (C 18), EEC Directive 79/831 Annex V.A8; format: physicochemical; conditions: 55° C.; for LOGP_HCOOH: log P (HCOOH); for chromatographic logP: reversed-phase HPLC column (C 18)
Method: Temperature: 55° C. […] Called log P (HCOOH) in the table. […] Called log P (neutral) in the table.

Phaedon cochleariae = Phaedon cochleariae spray test; format: in vivo; conditions: after 7 days, Chinese cabbage leaf discs
Method: Phaedon cochleariae—Spray Test
(§1) Solvent: 78.0 parts by weight of acetone • • 1.5 parts by weight of dimethylformamide
(§2) Emulsifier: alkylaryl polyglycol ether
(§3) To produce a suitable active ingredient formulation, 1 part by weight of active ingredient is dissolved with the specified parts by weight of solvent and made up with water containing an emulsifier concentration of 1000 ppm until the desired concentration is attained. To produce further test concentrations, the formulation is diluted with emulsifier-containing water.
Discs of Chinese cabbage leaves (Brassica pekinensis) are sprayed with an active ingredient formulation of the desired concentration and, after drying, populated with larvae of the mustard beetle (Phaedon cochleariae).
After 7 days, the efficacy in % is determined. 100% means that all the beetle larvae have been killed; 0% means that no beetle larvae have been killed.

Spodoptera frugiperda = Spodoptera frugiperda spray test; format: in vivo; conditions: after 7 days, maize leaf discs
Method: Spodoptera frugiperda—Spray Test
as §1, §2, §3
Leaf discs of maize (Zea mays) are sprayed with an active ingredient formulation of the desired concentration and, after drying, populated with caterpillars of the armyworm (Spodoptera frugiperda).
After 7 days, the efficacy in % is determined. 100% means that all the caterpillars have been killed; 0% means that no caterpillar has been killed.

[2] = acidic range at pH 2.7, 0.1% aqueous formic acid and acetonitrile, HPLC on reversed-phase column (C 18)
[3] = log P, neutral range, HPLC on reversed-phase column (C 18)
[4] = acidic range pH 2.7, 0.1% aqueous formic acid and acetonitrile, reversed-phase column (C 18)
[5] = log P (neutral), HPLC reversed-phase column (C 18)

Row | Compound | LOGP_HCOOH [1, 2] | LOGP_NEUTRAL [1, 3] | LOGP_HCOOH [1, 4] | efficacy (caterpillars killed) (Spodoptera frugiperda; application rate 500 g/ha) | efficacy (caterpillars killed) (Spodoptera frugiperda; application rate 100 g/ha) | other results
1 | NS(=O)(=O)c1ccc(CNC(=O)c2cc(-c3ccc(OC(F)(F)F)cc3)cc(NC(=O)C3CC3)n2)cc1 [Example I-186] | 3.17 | 3.00 |  |  |  | efficacy (beetle larvae killed) (Phaedon cochleariae; application rate 500 g/ha): 100%
2 | N#Cc1ccc(CNC(=O)c2cc(-c3ccc(OC(F)(F)F)cc3)cc(NC(=O)C3(C#N)CC3)n2)cc1 [Example I-210] | 4.04 | 3.88 |  |  |  | efficacy (beetle larvae killed) (Phaedon cochleariae; application rate 100 g/ha): 83%; efficacy (beetle larvae killed) (Phaedon cochleariae; application rate 500 g/ha): 83%
3 | O=C(NCc1ccc([N+](=O)[O-])cc1)c1cc(-c2ccc(C(F)(F)F)cc2)cc(NC(=O)C2CC2)n1 [Example I-084] |  | 3.85 | 3.98 |  |  | efficacy (beetle larvae killed) (Phaedon cochleariae; application rate 500 g/ha): 100%
4 | O=C(NOCC1CC1)c1cc(-c2ccc(OC(F)(F)F)cc2)cc(NC(=O)C2CC2)n1 [Example I-236] |  |  | 3.59 |  |  | LOGP_NEUTRAL [1, 5]: 3.50; efficacy (beetle larvae killed) (Phaedon cochleariae; application rate 500 g/ha): 100%
5 | CC(C)C(=O)Nc1cc(-c2ccc(C(F)(F)F)cc2)cc(C(=O)NCc2c(F)cc(C#N)cc2F)n1 [Example I-069] |  | 4.05 | 4.16 |  |  | efficacy (beetle larvae killed) (Phaedon cochleariae; application rate 500 g/ha): 83%
6 | N#Cc1ccc(CNC(=O)c2cc(-c3ccc(I)cc3)cc(NC(=O)C3CC3)n2)cc1 [Example I-050] |  | 3.83 | 3.87 |  |  | efficacy (beetle larvae killed) (Phaedon cochleariae; application rate 500 g/ha): 83%
7 | N#Cc1ccc(CNC(=O)c2cc(-c3ccc(C(F)(F)C(F)(F)F)c(F)c3F)cc(NC(=O)C3CC3)n2)cc1 [Example I-272] |  |  | 4.17 |  |  | efficacy (beetle larvae killed) (Phaedon cochleariae; application rate 500 g/ha): 83%
8 | O=C(NCc1ccc([N+](=O)[O-])cc1)c1cc(-c2ccc(C(F)(F)C(F)(F)F)c(F)c2)cc(NC(=O)C2CC2)n1 [Example I-209] | 4.34 | 4.33 |  |  |  | efficacy (beetle larvae killed) (Phaedon cochleariae; application rate 100 g/ha): 100%
9 | CONC(=O)c1cc(-c2ccc(OC(F)(F)F)cc2)cc(NC(=O)C2CC2)n1 [Example I-234] |  |  | 2.97 |  |  | LOGP_NEUTRAL [1, 5]: 2.89; efficacy (beetle larvae killed) (Phaedon cochleariae; application rate 500 g/ha): 100%
10 | N#Cc1ccc(CNC(=O)c2cc(-n3ccc(C(F)(F)C(F)(F)F)n3)cc(NC(=O)C3CC3)n2)cc1 [Example I-188, N-(4-Cyanobenzyl)-6-[(cyclopropylcarbonyl)amino]-4-[3-(pentafluoroethyl)-1H-pyrazol-1-yl]pyridine-2-carboxamide] | 3.70 | 3.57 |  |  |  | chromatographic logP ([1]; pH 2.7, LC-MS acidic range, pH 2.7, 0.1% formic acid/acetonitrile, read-out: log P (acidic) / log P (HCOOH)): 3.7; chromatographic logP ([1]; pH 7.8, LC-MS neutral range, pH 7.8, ammonium hydrogencarbonate/acetonitrile, read-out: log P (neutral)): 3.57; pest or weed control at 100 g/ha (Phaedon cochleariae; Phaedon cochleariae, foliar, 168 h, application rate 100 g/ha, read-out: efficacy (beetle larvae killed)): 100%; pest or weed control at 500 g/ha (Phaedon cochleariae; Phaedon cochleariae, foliar, 168 h, application rate 500 g/ha, read-out: efficacy (beetle larvae killed)): 100%
11 | O=C(NCc1cc(F)c(Cl)cc1Cl)c1cc(-c2ccc(C(F)(F)F)cc2)cc(NC(=O)C2CC2)n1 [Example I-059] |  | 4.93 | 5.09 | 100% |  | 
12 | Cn1ncc2cccc(CNC(=O)c3cc(-c4ccc(OC(F)(F)F)cc4)cc(NC(=O)C4CC4)n3)c21 [Example I-092] |  | 3.67 | 3.81 | 100% |  | 
13 | N#Cc1ccc2[nH]nc(NC(=O)c3cc(-c4ccc(OC(F)(F)F)cc4)cc(NC(=O)C4CC4)n3)c2c1 [Example I-166] | 3.68 |  |  | 83% |  | 
14 | N#CC1CCC(CNC(=O)c2cc(-c3ccc(OC(F)(F)F)cc3)cc(NC(=O)C3CC3)n2)CC1 (centres unmarked) [Example I-198] | 3.85 | 3.75 |  | 100% | 100% | 
15 | N#Cc1ccc(CNC(=O)c2cc(-c3ccc(OC(F)(F)F)cc3Cl)cc(NC(=O)C3CC3)n2)cc1 [Example I-122] | 4.18 | 3.99 |  | 100% | 100% | 
16 | N#Cc1ccc(CNC(=O)c2cc(-c3ccc(OC(F)(F)F)c(F)c3)cc(NC(=O)C3CC3)n2)cc1 [Example I-121] | 3.94 | 3.83 |  | 100% | 83% | 
17 | CC(NC(=O)c1cc(-c2ccc(OC(F)(F)F)cc2)cc(NC(=O)C2CC2)n1)c1ccc(C#N)cc1 (single isomer, unassigned) [Example I-219] | 4.17 | 4.02 |  | 83% |  | 
18 | COc1ccc(CNC(=O)c2cc(-c3ccc(OC(F)(F)F)cc3)cc(NC(=O)C3CC3)n2)cc1 [Example I-083] |  | 4.05 | 4.22 | 100% | 83% | 
19 | N#Cc1ccc(CNC(=O)c2cc(-c3ccc(C(F)(F)F)nc3F)cc(NC(=O)C3CC3)n2)cc1 [Example I-143] | 3.24 |  |  |  | 100% | 
20 | N#Cc1ccc(CNC(=O)c2cc(-c3ccc(C(F)(F)C(F)(F)F)c(Cl)c3)cc(NC(=O)C3CC3)n2)cc1 [Example I-273] |  |  | 4.45 | 100% |  | 
21 | N#Cc1ccc2c(c1)CCC2NC(=O)c1cc(-c2ccc(OC(F)(F)F)cc2)cc(NC(=O)C2CC2)n1 (centres unmarked) [Example I-164] | 4.42 | 4.24 |  | 100% | 100% | 
22 | O=C(NCc1cccc(F)c1)c1cc(-c2ccc(C(F)(F)F)cc2)cc(NC(=O)C2CC2)n1 [Example I-003] |  |  | 4.24 | 83% |  | 
23 | O=C(NCc1ccc(C(F)(F)F)cc1F)c1cc(-c2ccc(C(F)(F)F)cc2)cc(NC(=O)C2CC2)n1 [Example I-054] |  | 4.59 | 4.68 | 100% |  | 
24 | N#Cc1ccc(CNC(=O)c2cc(-c3ccc(OC(F)(F)F)cc3)cc(NC(=O)Cc3ccc([N+](=O)[O-])cc3)n2)cc1 [Example I-211] | 4.16 | 4.01 |  | 100% | 83% | 
25 | N#Cc1ccc(CNC(=O)c2cc(-c3ccc(OC(F)(F)F)cc3)cc(NC(=O)C3CCCC3)n2)cc1 [Example I-207] |  | 4.51 |  | 100% |  | 
26 | O=C(NCc1ccc(Cl)c(F)c1)c1cc(-c2ccc(OC(F)(F)F)cc2)cc(NC(=O)C2CC2)n1 [Example I-062] |  | 4.53 | 4.67 | 100% | 83% | 
27 | O=C(NC1CCC1)c1cc(-c2ccc(C(F)(F)F)cc2)cc(NC(=O)C2CC2)n1 [Example I-033] |  | 3.80 | 3.88 | 100% |  | 
28 | CCC(C#N)(CC)NC(=O)c1cc(-c2ccc(OC(F)(F)F)cc2)cc(NC(=O)C2CC2)n1 [Example I-139] | 4.28 |  |  | 100% |  | 
29 | COC(C)C(=O)Nc1cc(-c2ccc(OC(F)(F)F)cc2)cc(C(=O)NCc2ccc(C#N)cc2)n1 (centres unmarked) [Example I-223] | 4.01 | 3.91 |  | 100% |  | 
30 | O=C(NC1CCCC1)c1cc(-c2ccc(OC(F)(F)F)cc2)cc(NC(=O)C2CC2)n1 [Example I-169] | 4.35 | 4.22 |  | 100% | 100% | 
